Results from PMC3701070 (PLoS ONE, 2013).
Where two headings read alike, the source gives them in different places.

Columns and labels:
Type in all cases: cell-based
[1] = tested on: A375; assay: Cell growth assay; conditions: Homo sapiens, A-375, 72 h; A375, BRAF(V600E), RAS WT, 3-day; read-out: gIC50
Experimental: (§1) Growth was measured with CellTiter-Glo® (Promega) reagent per the manufacturer’s protocol, using a PerkinElmer EnVision™ reader at t = 0 and 72 h. IC50 values for cell growth inhibition (gIC50) were determined.
(§2) (PDF) Click here for additional data file.
Supplementary file pone.0067583.s006.pdf: Table S3 Enzymatic and cellular activity of tool inhibitors used in the rat skin lesion formation study. Activity of GSK2366297A (BRAF tool inhibitor) and GSK2091975 (MEK tool inhibitor, active form of prodrug GSK2091976) were measured against their respective enzyme targets as described in the Materials and Methods section. Cellular activity was determined for each by inhibition of ERK phosphorylation in SK-MEL-28 cells and growth of A375 cells, both of which express BRAF^V600E. (PDF) Click here for additional data file.

[2] = tested on: phospho-MEK1/2 (pMEK) in ES-2 ovarian carcinoma (BRAF^V600E) cells; assay: Western blot, pMEK in ES-2 cells; conditions: Homo sapiens; ES-2 cells (BRAF^V600E), 1 h, immunoblot; read-out: IC50 for pMEK inhibition
Experimental: (§3) Cells were lysed in 25 mM Tris-HCl pH 7.5, 2 mM EDTA, 2 mM EGTA, 1% Triton X-100, 0.1% SDS, 50 mM sodium-β-glycerophosphate, 2 mM Na3VO4, 12.5 mM sodium pyrophosphate, 2× Complete EDTA-free mini protease inhibitor tablets (Roche), 2× phosphatase inhibitor cocktails I and II (Sigma-Aldrich). Protein concentrations were determined by Bio-Rad DC™ or dye-based protein assays and lysates were resolved by SDS-PAGE (Invitrogen NuPAGE®) and transferred to PVDF membranes. Membranes were blocked with Odyssey® (LI-COR Biosciences) blocking buffer and incubated with primary antibodies overnight at 4°C. Blots were washed with PBS containing 0.1% Tween-20, incubated with secondary antibodies, and washed again prior to signal detection on a LI-COR Odyssey® reader.
Signals were quantified and used to determine IC50 values. (PPTX) Click here for additional data file.

[3] = tested on: pERK in A375P (BRAF^V600E) cells; assay: Western blot, pERK in A375P cells; conditions: Homo sapiens, 8 nM, 1 h
Experimental: as §3
siRNA complexes were prepared per the manufacturer's instructions using Dharmacon RNAi duplex (Thermo Fisher Scientific), Lipofectamine™ RNAiMAX™ (Invitrogen), and Opti-MEM® (Gibco) and allowed to form at room temperature for at least 40 min. Volumes of 1 mL of RNAi complex were added to each well of a plate with 150 000 cells in complete medium (no antibiotic) and incubated at 37°C, 5% CO2 for the indicated times.
Lysates were immunoblotted for the proteins indicated.

[4] = tested on: 195 tumor cell lines; assay: Cell growth assay, summary over 195 tumor cell lines; conditions: Homo sapiens, read-out: gIC50
Experimental: as §1
The functional selectivity of dabrafenib was evaluated by measuring the growth of a range of human tumor cell lines of different genetic mutation status.
as §2

`CC(C)(C)c1nc(-c2cccc(NS(=O)(=O)c3c(F)cccc3F)c2F)c(-c2ccnc(N)n2)s1` [dabrafenib] was tested, and the IC50 [1] was 4 nM, the IC50 [2] was 6 nM and the inhibition at 0.008 µM [3] was > 90%. The IC50 ([4]; 133 (88%) of the 152 RAS/RAF wild-type and all 18 mutant RAS cell lines) was > 10000 nM, the IC50 ([4]; A673, 3 of the BRAF^V600E cell lines (GCT, RKO, A673)) was > 2000 nM and the IC50 ([4]; sixteen (80%) of the 20 cell lines encoding BRAF^V600E) was < 200 nM.
